From patent publication US9688662B2, “N-(2,3-dihydro-1H-pyrrolo[2,3-b]pyridin-5-yl)-4-quinazolinamine and N-(2,3-dihydro-1H-indol-5-yl)-4-quinazolinamine derivatives as perk inhibitors” (Janssen Pharmaceutica NV, priority 2013, dated 2017) come the findings set out here.

Series [1] deals with T1, PERK (Homo sapiens, UniProt Q9NZJ5).
T1 sequence (Q9NZJ5 30-1116): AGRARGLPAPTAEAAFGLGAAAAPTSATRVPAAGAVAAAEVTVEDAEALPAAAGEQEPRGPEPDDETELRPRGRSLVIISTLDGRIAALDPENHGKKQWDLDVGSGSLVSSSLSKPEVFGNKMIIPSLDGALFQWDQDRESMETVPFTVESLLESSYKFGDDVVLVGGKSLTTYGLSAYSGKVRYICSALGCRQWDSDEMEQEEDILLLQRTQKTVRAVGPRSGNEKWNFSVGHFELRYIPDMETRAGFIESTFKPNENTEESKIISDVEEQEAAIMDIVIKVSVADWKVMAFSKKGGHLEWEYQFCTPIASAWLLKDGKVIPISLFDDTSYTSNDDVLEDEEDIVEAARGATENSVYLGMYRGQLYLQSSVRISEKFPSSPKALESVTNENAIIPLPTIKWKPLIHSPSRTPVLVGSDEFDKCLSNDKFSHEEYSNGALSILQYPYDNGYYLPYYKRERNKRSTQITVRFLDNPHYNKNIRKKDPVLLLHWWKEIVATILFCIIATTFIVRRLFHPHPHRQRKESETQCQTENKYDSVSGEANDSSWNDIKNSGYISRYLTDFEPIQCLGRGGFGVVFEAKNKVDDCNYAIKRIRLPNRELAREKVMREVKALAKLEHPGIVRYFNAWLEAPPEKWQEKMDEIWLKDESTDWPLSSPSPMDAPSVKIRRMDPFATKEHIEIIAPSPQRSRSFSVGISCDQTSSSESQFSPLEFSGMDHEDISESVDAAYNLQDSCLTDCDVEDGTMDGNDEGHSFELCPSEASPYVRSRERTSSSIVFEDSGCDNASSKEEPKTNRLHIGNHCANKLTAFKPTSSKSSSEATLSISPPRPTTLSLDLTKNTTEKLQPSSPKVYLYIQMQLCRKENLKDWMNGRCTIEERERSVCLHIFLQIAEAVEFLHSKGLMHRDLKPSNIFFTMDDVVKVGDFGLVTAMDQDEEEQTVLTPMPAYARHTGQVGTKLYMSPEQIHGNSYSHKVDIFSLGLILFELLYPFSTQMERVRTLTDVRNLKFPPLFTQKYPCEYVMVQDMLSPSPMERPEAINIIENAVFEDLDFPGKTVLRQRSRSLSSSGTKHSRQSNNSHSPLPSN
As to the kind of experiment: Cell-based PERK inhibition assay (TR-FRET, phosphorylation of GFP-eIF2 alpha in HEK293 cells, tunicamycin). On the procedure: A cell-based TR-FRET assay to measure inhibition of phosphorylation of GFP-eIF2 alpha expressed in HEK293 cells by compounds was set up as follows:
LanthaScreen® eIF2α GripTite cells (Invitrogen M4387) were plated and incubated for 16-20 h at 37° C. and 5% CO2, incubated with test compounds for 60 min, and then stimulated with tunicamycin (2 microg/ml) for 120 min. Culture medium was aspirated from the wells and, the cells were lysed in LanthaScreen® Cellular Assay Lysis Buffer (Invitrogen; PV5598), supplemented with protease inhibitor cocktail (Sigma P8340, 1/1000 dilution) and phosphatase inhibitor cocktail (Sigma P0044, 1/1000 dilution), including 2 nM terbium-labeled eIF2a pSer52 antibody (Invitrogen; PV4816).

The target of series [2] is T1, PERK. As to the kind of experiment: In-vitro PERK enzyme inhibition assay (LanthaScreen, KIN_PERK). As to conditions: recombinant GST-PERK, GFP-eIF2 alpha substrate, 5 μM ATP, 60 minutes; for IC50: read-out: KIN_PERK pIC50 (converted). Also on record: GST (N); purchased Invitrogen PV5106. Format: biochemical. How it is done: Pharmacology i) In-Vitro PERK Enzyme Inhibition Assay (KIN_PERK pIC50)
The compounds of the invention were tested for inhibitory activity against PERK in an enzyme inhibition assay.
A biochemical PERK kinase assay using LanthaScreen® technology from Invitrogen using recombinant GST-PERK (Invitrogen PV5106), GFP-eIF2 alpha (full length) as substrate (Invitrogen PV4809) and the Terbium-labeled antibody (Tb-anti-peIF2alpha (pSer52); Invitrogen PV4816) as detection reagent, was performed essentially as described by the manufacturer, using following specific parameters: […]

[3] abbreviates: HEK293 (LanthaScreen eIF2α GripTite) cells, compounds 60 min, tunicamycin 2 microg/ml 120 min.
The mark [4] stands for this setting: HEK293 (LanthaScreen eIF2α GripTite) cells, compounds 60 min, tunicamycin 2 microg/ml 120 min, read-out: P-eIF2alpha_Lantha_cell pIC50 (converted).

The structures appear in SMILES notation.

As for `COc1cc2ncnc(Nc3ccc4c(c3)CCN4C(=O)Cc3c(C)[nH]c4ccc(F)cc34)c2cc1OC` [Compound 2], the IC50 in series [1] is 25.1 nM; in series [2] it was 0.631 nM.
On to `COc1cc2ncnc(Nc3ccc4c(c3)CCN4C(=O)Cc3c(C)[nH]c4c(F)cccc34)c2cc1OC` [Compound 4], for which the “P-eIF2alpha_Lantha_cell pIC50” value in series [1] (setting [3]) is on record as 7.4. In addition, the “KIN_PERK pIC50” value in series [2] worked out at 8.8.
Regarding `COc1ccc2[nH]c(C)c(CC(=O)N3CCc4cc(Nc5ncnc6cc(OC)c(OC)cc56)ccc43)c2c1` [Compound 6], the IC50 in series [1] (setting [4]) was 79.4 nM; in series [2], 1.58 nM.
Consider `COc1cc2ncnc(Nc3ccc4c(c3)CCN4C(=O)Cn3c(C)cc4ccc(F)cc43)c2cc1OC` [Compound 7], for which, in series [1] (setting [3]), the “P-eIF2alpha_Lantha_cell pIC50” value worked out at 7.1. Also, the “KIN_PERK pIC50” value in series [2] is given as 8.5.
Take `COc1cc2ncnc(Nc3ccc4c(c3)CCN4C(=O)Cc3c(C)[nH]c4ccccc34)c2cc1OCCCN1CCOCC1` [Compound 8]: the melting point was found to be 216 °C. The IC50 in series [1] (setting [4]) was 158 nM.
For `COc1cc2ncnc(Nc3ccc4c(c3)CCN4C(=O)Cn3nc(C)c4ccccc43)c2cc1OC` [Compound 9], the IC50 in series [1] (setting [4]) was 251 nM; in series [2] it was 15.8 nM.
The corresponding values for `Cc1[nH]c2ccccc2c1CC(=O)N1CCc2cc(Nc3ncnc4cc5c(cc34)OCO5)ccc21` [Compound 10] are 158 nM and 3.98 nM.
The corresponding values for `COc1cc2ncnc(Nc3ccc4c(c3)CCN4C(=O)Cc3cn(C)c4ccccc34)c2cc1OC` [Compound 12] are 200 nM and 5.01 nM.
The corresponding values for `COc1cc2ncnc(Nc3ccc4c(c3)CCN4C(=O)Cn3ccc4ccc(F)cc43)c2cc1OC` [Compound 13] are 200 nM and 3.98 nM.
As to `COc1cc2ncnc(Nc3ccc4c(c3)C(F)(F)CN4C(=O)Cc3cc(F)ccc3F)c2cc1OC` [Compound 18], the IC50 in series [1] (setting [4]) was 794 nM; in series [2], 31.6 nM.
The corresponding values for `COc1cc2ncnc(Nc3ccc4c(c3)CCN4C(=O)Cc3c(C)nc4ccccn34)c2cc1OC` [Compound 19] are 1260 nM and 12.6 nM.
The corresponding values for `COc1cc2ncnc(Nc3ccc4c(c3)CCN4C(=O)Cc3ccccc3)c2cc1OC` [Compound 21] are 1260 nM and 25.1 nM.
Turning to `COc1cc2ncnc(Nc3ccc4c(c3)CCN4C(=O)Cc3ccsc3)c2cc1OC` [Compound 22], the figures for the IC50 in series [1] (setting [4]) and in series [2] were 2000 nM and 63.1 nM, respectively.
The like results for `COc1cc2ncnc(Nc3ccc4c(c3)CCN4C(=O)Cc3n[nH]c4ccc(F)cc34)c2cc1OC` [Compound 23] were, in that order, 2000 nM and 31.6 nM.
The corresponding values for `COc1cc2ncnc(Nc3ccc4c(c3)CCN4C(=O)Cn3ncc4ccccc43)c2cc1OC` [Compound 24] are 3160 nM and 79.4 nM.
The like results for `COc1cc2ncnc(Nc3ccc4c(c3)CCN4C(=O)COc3ccccc3C(C)=O)c2cc1OC` [Compound 25] were, in that order, 3160 nM and 79.4 nM.
Take `COc1cc2ncnc(Nc3ccc4c(c3)CCN4C(=O)Cc3n[nH]c4ccccc34)c2cc1OC` [Compound 26]: the figures for the IC50 in series [1] (setting [4]) and in series [2] were 3160 nM and 63.1 nM, respectively.
The like results for `COc1cc2ncnc(Nc3ccc4c(c3)CCN4C(=O)Cc3c[nH]c4ncccc34)c2cc1OC` [Compound 27] were, in that order, 3980 nM and 63.1 nM.
The like results for `COc1cc2ncnc(Nc3ccc4c(c3)CCN4C(=O)Cn3c(=O)n(C)c4ccccc43)c2cc1OC` [Compound 29] were, in that order, above 30200 nM and 50.1 nM.
The corresponding values for `COc1cc2ncnc(Nc3ccc4c(c3)CCN4C(=O)Cn3cnc4ccccc43)c2cc1OC` [Compound 31] are above 30200 nM and 63.1 nM.
On to `COc1cc2ncnc(Nc3ccc4c(c3)CCN4C(=O)Cc3cc4ccccc4[nH]3)c2cc1OC` [Compound 32], for which the IC50 in series [1] (setting [4]) is above 30200 nM; in series [2], 398 nM.
As for `COc1cc2ncnc(Nc3ccc4c(c3)CCN4C(=O)Cc3c(-c4ccccc4)[nH]c4ccccc34)c2cc1OC` [Compound 33], the IC50 in series [2] is 6310 nM.
With `COc1cc2ncnc(Nc3ccc4c(c3)CCN4C(=O)CN3Cc4ccccc4C3=O)c2cc1OC` [Compound 34], in series [2], the IC50 was 1580 nM.
Turning to `O=C(Cc1cc(F)ccc1F)N1CCc2cc(Nc3ncnc4cc5c(cc34)OCO5)ccc21` [Compound 35], the IC50 in series [2] was above 10000 nM.
For `COc1cc2ncnc(Nc3ccc4c(c3)CCN4C(=O)CN3C(=O)c4ccccc4C3=O)c2cc1OC` [Compound 36], the melting point is 190 °C. Moreover, the IC50 in series [2] was 3160 nM.
Regarding `COc1cc2ncnc(Nc3ccc4c(c3)CCN4C(=O)Cc3cn(C(C)C)c4ccccc34)c2cc1OC` [Compound 37], in series [2], the IC50 is 1580 nM.
As to `COc1cc2ncnc(Nc3cnc4c(c3)CCN4C(=O)Cc3cc(F)cc(C(F)(F)F)c3)c2cc1OC` [Compound 38], the IC50 in series [2] is 3160 nM.
Turning to `COc1cc2ncnc(Nc3ccc4c(c3)CCN4C(=O)Cc3cc(F)cc(C(F)(F)F)c3)c2cc1OC` [Compound 43], the IC50 in series [1] (setting [4]) is 1580 nM; in series [2] it was 2 nM.
The like results for `COc1ccc2ncnc(Nc3ccc4c(c3)CCN4C(=O)Cc3cc(F)cc(C(F)(F)F)c3)c2c1` [Compound 44] were, in that order, above 30200 nM and around 21.4 nM.
The corresponding values for `COc1ccc2c(Nc3ccc4c(c3)CCN4C(=O)Cc3cc(F)cc(C(F)(F)F)c3)ncnc2c1` [Compound 45] are above 30200 nM and 39.8 nM.
As for `COc1cc2ncnc(Nc3ccc4c(c3)CCN4C(=O)Cc3c(-c4cccs4)cnn3C)c2cc1OC` [Compound 46, 1-[5-[(6,7-dimethoxyquinazolin-4-yl)amino]indolin-1-yl]-2-[2-methyl-4-(2-thienyl)pyrazol-3-yl]ethanone], the IC50 in series [1] (setting [4]) was around 11500 nM; in series [2], 398 nM.
The corresponding values for `COc1cc2ncnc(Nc3ccc4c(c3)CCN4C(=O)Cc3ccnn3C)c2cc1OC` [Compound 47, 1-[5-[(6,7-dimethoxyquinazolin-4-yl)amino]indolin-1-yl]-2-(2-methylpyrazol-3-yl)ethanone] are 6310 nM and 63.1 nM.
For the molecule `COc1cc2ncnc(Nc3ccc4c(c3)CCN4C(=O)Cc3c(-c4ccccc4)cnn3C)c2cc1OC` [Compound 48], the IC50 in series [1] (setting [4]) is 1260 nM; in series [2], 251 nM.
The like results for `COc1cc2ncnc(Nc3ccc4c(c3)CCN4C(=O)Cc3c(-c4ccoc4)cnn3C)c2cc1OC` [Compound 49] were, in that order, 3160 nM and 50.1 nM.
As for `COc1cc2ncnc(Nc3ccc4c(c3)CCN4C(=O)Cc3c(-c4cnoc4)cnn3C)c2cc1OC` [Compound 50], the IC50 is 3160 nM in series [1] (setting [4]) and 79.4 nM in series [2].
The like results for `COc1cc2ncnc(Nc3ccc4c(c3)CCN4C(=O)Cc3c(-c4ccsc4)cnn3C)c2cc1OC` [Compound 51] were, in that order, 31600 nM and 251 nM.
The like results for `COc1cc2ncnc(Nc3ccc4c(c3)CCN4C(=O)Cc3c(-c4cnn(C)c4)cnn3C)c2cc1OC` [Compound 52] were, in that order, above 30200 nM and 631 nM.
